According to PMC5218480 (PLoS ONE, 2017):

System: MV-4-11 cells
Assay: Gene expression microarray analysis (Affymetrix PrimeView) and GSEA
Type: cell-based, human
Design: RFU PODN (11730768_x_at) / Fold change /veh PODN (11730768_x_at) / RFU LINC00158 (11744669_a_at) / Fold change /veh LINC00158 (11744669_a_at) / RFU DUSP10 (11751237_a_at) / Fold change /veh DUSP10 (11751237_a_at) / RFU ID3 (11757404_x_at) / Fold change /veh ID3 (11757404_x_at) / RFU PLEKHG5 (11737974_s_at) / Fold change /veh PLEKHG5 (11737974_s_at) / RFU LRRC4B (11730491_at) / Fold change /veh LRRC4B (11730491_at) / RFU GIMAP4 (11747438_a_at) / Fold change /veh GIMAP4 (11747438_a_at) / RFU KRT8 (11758183_x_at) / Fold change /veh KRT8 (11758183_x_at) / RFU CNN1 (11734310_a_at) / Fold change /veh CNN1 (11734310_a_at) / RFU VPS37D (11726825_at) / Fold change /veh VPS37D (11726825_at) / RFU C10orf10 (11716522_x_at) / Fold change /veh C10orf10 (11716522_x_at) / RFU KIR2DL2 /// KIR2DL4 /// KIR2DL5A /// KIR2DL5B /// KIR2DS1 /// KIR2DS2 /// KIR2DS3 /// KIR2DS4 /// KIR3DL3 /// KIR3DL3 /// KIR3DS1 (11738374_at) / Fold change /veh KIR2DL2 /// KIR2DL4 /// KIR2DL5A /// KIR2DL5B /// KIR2DS1 /// KIR2DS2 /// KIR2DS3 /// KIR2DS4 /// KIR3DL3 /// KIR3DL3 /// KIR3DS1 (11738374_at) / RFU C1QL1 (11718748_at) / Fold change /veh C1QL1 (11718748_at) / RFU TMPRSS4 (11747572_a_at) / Fold change /veh TMPRSS4 (11747572_a_at) / RFU HAMP (11756126_x_at) / Fold change /veh HAMP (11756126_x_at) / RFU RNFT2 (11725882_a_at) / Fold change /veh RNFT2 (11725882_a_at) / RFU NR4A2 (11747474_a_at) / Fold change /veh NR4A2 (11747474_a_at) / RFU ABCC12 (11746883_a_at) / Fold change /veh ABCC12 (11746883_a_at) / RFU TMEM136 (11760407_x_at) / Fold change /veh TMEM136 (11760407_x_at) / RFU CLDN22 /// WWC2 (11732394_at) / Fold change /veh CLDN22 /// WWC2 (11732394_at) / RFU HLA-DPB1 (11760878_x_at) / Fold change /veh HLA-DPB1 (11760878_x_at) / RFU SPINT1 (11716480_a_at) / Fold change /veh SPINT1 (11716480_a_at) / RFU GAP43 (11754022_s_at) / Fold change /veh GAP43 (11754022_s_at) / RFU A4GNT (11735810_at) / Fold change /veh A4GNT (11735810_at) / RFU PRB3 (11715151_x_at) / Fold change /veh PRB3 (11715151_x_at) / RFU TUBB4B (11761932_at) / Fold change /veh TUBB4B (11761932_at) / RFU CAPN14 (11732068_a_at) / Fold change /veh CAPN14 (11732068_a_at) / RFU TMCC2 (11721928_a_at) / Fold change /veh TMCC2 (11721928_a_at) / RFU IRGQ (11745062_a_at) / Fold change /veh IRGQ (11745062_a_at) / RFU FAM174B (11720279_a_at) / Fold change /veh FAM174B (11720279_a_at) / RFU TMPRSS4 (11748680_a_at) / Fold change /veh TMPRSS4 (11748680_a_at) / RFU FAM212B (11763350_a_at) / Fold change /veh FAM212B (11763350_a_at) / RFU PLEKHG5 (11743358_a_at) / Fold change /veh PLEKHG5 (11743358_a_at) / RFU ZSCAN30 (11745921_a_at) / Fold change /veh ZSCAN30 (11745921_a_at) / RFU CMKLR1 (11741424_a_at) / Fold change /veh CMKLR1 (11741424_a_at) / RFU LOC101060620 /// MAPK8IP1 (11723275_at) / Fold change /veh LOC101060620 /// MAPK8IP1 (11723275_at) / RFU SPTSSB (11747773_x_at) / Fold change /veh SPTSSB (11747773_x_at) / RFU PRSS12 (11739890_at) / Fold change /veh PRSS12 (11739890_at) / RFU BIN1 (11741810_x_at) / Fold change /veh BIN1 (11741810_x_at) / RFU WNT11 (11732464_a_at) / Fold change /veh WNT11 (11732464_a_at) / RFU C10orf10 (11716521_a_at) / Fold change /veh C10orf10 (11716521_a_at) / RFU C5orf56 (11738089_at) / Fold change /veh C5orf56 (11738089_at) / RFU CYB561 (11721691_x_at) / Fold change /veh CYB561 (11721691_x_at) / RFU ANKRD19P (11752326_a_at) / Fold change /veh ANKRD19P (11752326_a_at) / RFU OR2T12 /// OR2T33 /// OR2T8 (11738714_s_at) / Fold change /veh OR2T12 /// OR2T33 /// OR2T8 (11738714_s_at) / RFU VCAN (11748164_a_at) / Fold change /veh VCAN (11748164_a_at) / RFU JSRP1 (11732532_at) / Fold change /veh JSRP1 (11732532_at) / RFU KRTAP10-11 (11738290_x_at) / Fold change /veh KRTAP10-11 (11738290_x_at) / RFU MYO3A (11730013_a_at) / Fold change /veh MYO3A (11730013_a_at) / RFU EBF3 (11725865_a_at) / Fold change /veh EBF3 (11725865_a_at) / RFU CAMK2N1 (11719241_x_at) / Fold change /veh CAMK2N1 (11719241_x_at) / RFU C5orf56 (11738088_a_at) / Fold change /veh C5orf56 (11738088_a_at) / RFU OLFML3 (11715873_a_at) / Fold change /veh OLFML3 (11715873_a_at) / RFU LOC100653217 /// NTM (11731650_a_at) / Fold change /veh LOC100653217 /// NTM (11731650_a_at) / RFU MAPK11 (11762145_a_at) / Fold change /veh MAPK11 (11762145_a_at) / RFU FIZ1 (11724087_x_at) / Fold change /veh FIZ1 (11724087_x_at) / RFU OASL (11726364_x_at) / Fold change /veh OASL (11726364_x_at) / RFU SOX15 (11748057_x_at) / Fold change /veh SOX15 (11748057_x_at) / RFU CD79A (11719716_a_at) / Fold change /veh CD79A (11719716_a_at) / RFU HIST1H1D (11736915_at) / Fold change /veh HIST1H1D (11736915_at) / RFU CASKIN2 (11723855_a_at) / Fold change /veh CASKIN2 (11723855_a_at) / RFU LOC730098 (11760151_x_at) / Fold change /veh LOC730098 (11760151_x_at) / RFU OR4N2 (11742367_at) / Fold change /veh OR4N2 (11742367_at) / RFU PRRT2 (11749266_a_at) / Fold change /veh PRRT2 (11749266_a_at) / RFU SNX32 (11753110_a_at) / Fold change /veh SNX32 (11753110_a_at) / RFU CDHR5 (11726645_a_at) / Fold change /veh CDHR5 (11726645_a_at) / RFU RCAN1 (11760418_a_at) / Fold change /veh RCAN1 (11760418_a_at) / RFU FAM167A (11723789_a_at) / Fold change /veh FAM167A (11723789_a_at) / RFU FAM26E (11764081_at) / Fold change /veh FAM26E (11764081_at) / RFU ISYNA1 (11749810_s_at) / Fold change /veh ISYNA1 (11749810_s_at) / RFU ACY1 (11761880_at) / Fold change /veh ACY1 (11761880_at) / RFU 11764098_at / Fold change /veh 11764098_at / RFU SAMD14 (11745864_x_at) / Fold change /veh SAMD14 (11745864_x_at) / RFU NPB (11741838_a_at) / Fold change /veh NPB (11741838_a_at) / RFU TMPRSS6 (11731388_a_at) / Fold change /veh TMPRSS6 (11731388_a_at) / RFU KRTAP10-2 (11738614_at) / Fold change /veh KRTAP10-2 (11738614_at) / RFU ARHGAP8 /// PRR5-ARHGAP8 (11727945_x_at) / Fold change /veh ARHGAP8 /// PRR5-ARHGAP8 (11727945_x_at) / RFU KRTAP5-7 /// NADSYN1 (11734609_at) / Fold change /veh KRTAP5-7 /// NADSYN1 (11734609_at) / RFU RASL12 (11751679_a_at) / Fold change /veh RASL12 (11751679_a_at) / RFU CDKN2B (11736163_a_at) / Fold change /veh CDKN2B (11736163_a_at) / RFU PRF1 (11729649_at) / Fold change /veh PRF1 (11729649_at) / RFU, ZNF638 /// ZNF638-IT1 / Fold change vs veh, ZNF638 /// ZNF638-IT1 / RFU, PANK3 / Fold change vs veh, PANK3 / RFU, SH3YL1 / Fold change vs veh, SH3YL1 / RFU, ZEB2 / Fold change vs veh, ZEB2 / RFU, NRIP1 / Fold change vs veh, NRIP1 / RFU, PTTG1IP / Fold change vs veh, PTTG1IP / RFU, CAPN2 / Fold change vs veh, CAPN2 / RFU, MED14 / Fold change vs veh, MED14 / RFU, SNORA58 / Fold change vs veh, SNORA58 / RFU, C1orf63 / Fold change vs veh, C1orf63 / RFU, LRRFIP1 / Fold change vs veh, LRRFIP1 / RFU, NDUFAF7 / Fold change vs veh, NDUFAF7 / RFU, SLC12A2 / Fold change vs veh, SLC12A2 / RFU, IBTK / Fold change vs veh, IBTK / RFU, ESF1 / Fold change vs veh, ESF1 / Fold change vs veh, TMEM50B / RFU, TAOK1 / Fold change vs veh, TAOK1 / RFU, ACBD3 / Fold change vs veh, ACBD3 / RFU, TMA16 / Fold change vs veh, TMA16 / RFU, RWDD3 / Fold change vs veh, RWDD3 / RFU, BCAT1 / Fold change vs veh, BCAT1 / RFU, EDEM3 / Fold change vs veh, EDEM3 / RFU, TMEM33 / Fold change vs veh, TMEM33 / RFU, WDR75 / Fold change vs veh, WDR75 / RFU, AHCTF1 / Fold change vs veh, AHCTF1 / RFU, TFRC / Fold change vs veh, TFRC / RFU, ZDHHC17 / Fold change vs veh, ZDHHC17 / RFU, NOM1 / Fold change vs veh, NOM1 / RFU, ARL8B / Fold change vs veh, ARL8B / RFU, ZBTB11 / Fold change vs veh, ZBTB11 / RFU, TAMM41 / Fold change vs veh, TAMM41 / RFU, KIAA1704 /// LOC100996395 / Fold change vs veh, KIAA1704 /// LOC100996395 / RFU, ING1 / Fold change vs veh, ING1 / RFU, TRMT61B / Fold change vs veh, TRMT61B / RFU, FUBP3 / Fold change vs veh, FUBP3 / RFU, TP53 / Fold change vs veh, TP53 / RFU, TNKS2 / Fold change vs veh, TNKS2 / RFU, ZFP14 / Fold change vs veh, ZFP14 / RFU, ACTR2 / Fold change vs veh, ACTR2 / RFU, PPP3R1 / Fold change vs veh, PPP3R1 / RFU, PIK3R1 / Fold change vs veh, PIK3R1 / RFU, HNRNPA1 / Fold change vs veh, HNRNPA1 / RFU, RNF170 / Fold change vs veh, RNF170 / RFU, ZNF28 / Fold change vs veh, ZNF28 / RFU, RNGTT / Fold change vs veh, RNGTT / RFU, OGT / Fold change vs veh, OGT / RFU, BRD1 / Fold change vs veh, BRD1 / RFU, MARS / Fold change vs veh, MARS / RFU, ZNF655 / Fold change vs veh, ZNF655 / RFU, FAHD1 / Fold change vs veh, FAHD1 / RFU, BDP1 / Fold change vs veh, BDP1 / RFU, LRRCC1 / Fold change vs veh, LRRCC1 / RFU, ARID1A / Fold change vs veh, ARID1A / RFU, ZNF146 / Fold change vs veh, ZNF146 / RFU, ZNF330 / Fold change vs veh, ZNF330 / RFU, GPN3 / Fold change vs veh, GPN3 / RFU, C9orf123 / Fold change vs veh, C9orf123 / RFU, N4BP2L2 / Fold change vs veh, N4BP2L2 / RFU, ARFIP1 / Fold change vs veh, ARFIP1 / RFU, FAM179B / Fold change vs veh, FAM179B / RFU, BCL10 / Fold change vs veh, BCL10 / RFU, UHRF1BP1L / Fold change vs veh, UHRF1BP1L / RFU, BET1 / Fold change vs veh, BET1 / RFU, CNOT2 / Fold change vs veh, CNOT2 / RFU, ZNF268 / Fold change vs veh, ZNF268 / Fold change vs veh, ZNF507 / RFU, DGCR2 / Fold change vs veh, DGCR2 / RFU, WDSUB1 / Fold change vs veh, WDSUB1 / Fold change vs veh, HSP90B1 /// MIR3652 / RFU, ADSS / Fold change vs veh, ADSS / RFU, GK / Fold change vs veh, GK / RFU, ZNF148 / Fold change vs veh, ZNF148 / RFU, TAF9 / Fold change vs veh, TAF9 / RFU, SLC1A5 / Fold change vs veh, SLC1A5 / RFU, SLMO2 / Fold change vs veh, SLMO2 / RFU, ABCC4 / Fold change vs veh, ABCC4 / RFU, LOC101060439 /// RAP1B / Fold change vs veh, LOC101060439 /// RAP1B / RFU, RFX7 / Fold change vs veh, RFX7 / RFU, GTPBP10 / Fold change vs veh, GTPBP10 / RFU, CNEP1R1 / Fold change vs veh, CNEP1R1 / RFU, BIVM-ERCC5 /// ERCC5 / Fold change vs veh, BIVM-ERCC5 /// ERCC5 / RFU, ILF3 / Fold change vs veh, ILF3 / RFU 11762660_at / Fold change /veh 11762660_at / RFU VCAN (11757783_s_at) / Fold change /veh VCAN (11757783_s_at) / RFU DDX43 (11728927_at) / Fold change /veh DDX43 (11728927_at) / RFU KRT8 (11758188_x_at) / Fold change /veh KRT8 (11758188_x_at) / RFU NKD1 (11759106_at) / Fold change /veh NKD1 (11759106_at) / RFU SRD5A1 (11742802_a_at) / Fold change /veh SRD5A1 (11742802_a_at) / RFU TPSAB1 /// TPSB2 (11721975_s_at) / Fold change /veh TPSAB1 /// TPSB2 (11721975_s_at) / RFU GSTM3 (11746129_a_at) / Fold change /veh GSTM3 (11746129_a_at) / RFU IL23R (11737362_x_at) / Fold change /veh IL23R (11737362_x_at) / RFU TMEM51 (11727254_a_at) / Fold change /veh TMEM51 (11727254_a_at) / RFU PIWIL2 (11732686_x_at) / Fold change /veh PIWIL2 (11732686_x_at) / RFU ORM1 (11744905_x_at) / Fold change /veh ORM1 (11744905_x_at) / RFU CCDC152 (11743942_at) / Fold change /veh CCDC152 (11743942_at) / RFU ECM1 (11717891_a_at) / Fold change /veh ECM1 (11717891_a_at) / RFU IL23R (11748794_a_at) / Fold change /veh IL23R (11748794_a_at) / RFU TNFAIP8L3 (11732012_x_at) / Fold change /veh TNFAIP8L3 (11732012_x_at) / RFU MBOAT4 (11741988_at) / Fold change /veh MBOAT4 (11741988_at) / RFU 11764193_at / Fold change /veh 11764193_at / RFU TMEM53 (11763286_at) / Fold change /veh TMEM53 (11763286_at) / RFU MAGEB2 (11727129_at) / Fold change /veh MAGEB2 (11727129_at) / RFU TMEM200A (11744735_a_at) / Fold change /veh TMEM200A (11744735_a_at) / RFU CCDC152 (11751479_a_at) / Fold change /veh CCDC152 (11751479_a_at) / RFU FAM211A (11726209_a_at) / Fold change /veh FAM211A (11726209_a_at) / RFU RGS16 (11746705_a_at) / Fold change /veh RGS16 (11746705_a_at) / RFU VCAN (11755009_s_at) / Fold change /veh VCAN (11755009_s_at) / RFU RHOB (11743442_s_at) / Fold change /veh RHOB (11743442_s_at) / RFU RGS16 (11720943_a_at) / Fold change /veh RGS16 (11720943_a_at) / RFU RGS16 (11720944_at) / Fold change /veh RGS16 (11720944_at) / RFU, VPS4B / Fold change vs veh, VPS4B / RFU, CREB1 / Fold change vs veh, CREB1 / RFU, DNAJC13 / Fold change vs veh, DNAJC13 / RFU, GNAQ / Fold change vs veh, GNAQ / RFU, CDK5R1 / Fold change vs veh, CDK5R1 / RFU, ZRANB3 / Fold change vs veh, ZRANB3 / RFU, CUL4A / Fold change vs veh, CUL4A / RFU, CCNY / Fold change vs veh, CCNY / RFU, UFL1 / Fold change vs veh, UFL1 / RFU, COG3 / Fold change vs veh, COG3 / RFU, DIAPH2 / Fold change vs veh, DIAPH2 / RFU, SKA2 / Fold change vs veh, SKA2 / RFU, AFF3 / Fold change vs veh, AFF3 / RFU, LMF1 / Fold change vs veh, LMF1 / RFU, IPO11 / Fold change vs veh, IPO11 / RFU, DFFB / Fold change vs veh, DFFB / RFU, FOXP1 / Fold change vs veh, FOXP1 / RFU, CARD8 / Fold change vs veh, CARD8 / RFU, STRN3 / Fold change vs veh, STRN3 / RFU, ADK / Fold change vs veh, ADK / RFU, RASSF2 / Fold change vs veh, RASSF2 / RFU, WIPF1 / Fold change vs veh, WIPF1 / RFU, LARP1B / Fold change vs veh, LARP1B / RFU, RASA1 / Fold change vs veh, RASA1 / RFU, RB1 / Fold change vs veh, RB1 / RFU, PPFIA1 / Fold change vs veh, PPFIA1 / RFU, MAT2A / Fold change vs veh, MAT2A / RFU, CCT5 / Fold change vs veh, CCT5 / RFU, WDR92 / Fold change vs veh, WDR92 / RFU, CUX1 / Fold change vs veh, CUX1 / RFU, TTC7A / Fold change vs veh, TTC7A / RFU, TMEM135 / Fold change vs veh, TMEM135 / RFU, DEPTOR / Fold change vs veh, DEPTOR / RFU, CPM / Fold change vs veh, CPM / RFU, DNAJB6 / Fold change vs veh, DNAJB6 / RFU, CACNA2D3 / Fold change vs veh, CACNA2D3 / RFU, DTX4 / Fold change vs veh, DTX4 / RFU, TFCP2 / Fold change vs veh, TFCP2 / RFU, GMCL1 /// GMCL1P1 / Fold change vs veh, GMCL1 /// GMCL1P1 / RFU, AEBP2 / Fold change vs veh, AEBP2 / RFU, SNHG1 /// SNORD22 /// SNORD25 /// SNORD26 /// SNORD27 /// SNORD28 /// SNORD29 /// SNORD31 / Fold change vs veh, SNHG1 /// SNORD22 /// SNORD25 /// SNORD26 /// SNORD27 /// SNORD28 /// SNORD29 /// SNORD31 / Fold change (Aza/veh), C12orf56 (ProbeSet 11735607_a_at) / Fold change (ACY-1035/veh), C12orf56 (ProbeSet 11735607_a_at) / Fold change (Aza/veh), FGFR1OP (ProbeSet 11751329_s_at) / Fold change (ACY-1035/veh), FGFR1OP (ProbeSet 11751329_s_at) / Fold change (Aza/veh), VPS36 (ProbeSet 11739960_a_at) / Fold change (ACY-1035/veh), VPS36 (ProbeSet 11739960_a_at) / RFU SYPL1 (11715823_x_at) / Fold change /veh SYPL1 (11715823_x_at) / RFU IGFBP7 (11715501_s_at) / Fold change /veh IGFBP7 (11715501_s_at) / RFU REEP3 (11722064_at) / Fold change /veh REEP3 (11722064_at) / RFU IGLL1 (11728026_x_at) / Fold change /veh IGLL1 (11728026_x_at): dose or concentration left out as unconfirmed
Conditions: ProbeSet 11740781_a_at; LIST B

Q: Which “RFU, ILF3” value does the source give for `Nc1ncn([C@@H]2O[C@H](CO)[C@@H](O)[C@H]2O)c(=O)n1` [azacitidine] here?
A: The value was 260.31 RFU.
